Measured values reported in ChEMBL document CHEMBL5647694, “Novel orally bioavailable EZH1/2 dual inhibitors with greater antitumor efficacy than an EZH2 selective inhibitor” (Cancer Sci, 2017).

Key:
[1] = biological target: Tyrosine-protein kinase ABL1 (Homo sapiens) (UniProt P00519); assay: Inhibition of N-terminal His-tagged wild type human ABL (2 to 1130 residues) expressed in baculovirus-infected Sf21 cells using ABLtide as substrate at 1 uM in presence of ATP by Mobility shift assay
[2] = biological target: Tyrosine-protein kinase BTK (Homo sapiens) (UniProt Q06187); assay: Inhibition of N-terminal GST-fused full length human BTK (2 to 659 residues) expressed in baculovirus infected Sf21 cells using Srctide as substrate at 1 uM in presence of ATP by Mobility shift assay
[3] = biological target: Tyrosine-protein kinase CSK (Homo sapiens) (UniProt P41240); assay: Inhibition of N-terminal GST-fused full length human CSK (1 to 450 residues) expressed in baculovirus-infected Sf21 cells using Srctide as substrate at 1 uM in presence of ATP by Mobility shift assay
[4] = biological target: Epithelial discoidin domain-containing receptor 1 (Homo sapiens) (UniProt Q08345); assay: Inhibition of N-terminal GST-fused human DDR1 cytoplasmic domain (444 to 876 residues) expressed in baculovirus-infected Sf21 cells using IRS1 as substrate at 1 uM in presence of ATP by Mobility shift assay
Epithelial discoidin domain-containing receptor 1 (Homo sapiens), sequence (Q08345 whole entry, the tested form may be a part): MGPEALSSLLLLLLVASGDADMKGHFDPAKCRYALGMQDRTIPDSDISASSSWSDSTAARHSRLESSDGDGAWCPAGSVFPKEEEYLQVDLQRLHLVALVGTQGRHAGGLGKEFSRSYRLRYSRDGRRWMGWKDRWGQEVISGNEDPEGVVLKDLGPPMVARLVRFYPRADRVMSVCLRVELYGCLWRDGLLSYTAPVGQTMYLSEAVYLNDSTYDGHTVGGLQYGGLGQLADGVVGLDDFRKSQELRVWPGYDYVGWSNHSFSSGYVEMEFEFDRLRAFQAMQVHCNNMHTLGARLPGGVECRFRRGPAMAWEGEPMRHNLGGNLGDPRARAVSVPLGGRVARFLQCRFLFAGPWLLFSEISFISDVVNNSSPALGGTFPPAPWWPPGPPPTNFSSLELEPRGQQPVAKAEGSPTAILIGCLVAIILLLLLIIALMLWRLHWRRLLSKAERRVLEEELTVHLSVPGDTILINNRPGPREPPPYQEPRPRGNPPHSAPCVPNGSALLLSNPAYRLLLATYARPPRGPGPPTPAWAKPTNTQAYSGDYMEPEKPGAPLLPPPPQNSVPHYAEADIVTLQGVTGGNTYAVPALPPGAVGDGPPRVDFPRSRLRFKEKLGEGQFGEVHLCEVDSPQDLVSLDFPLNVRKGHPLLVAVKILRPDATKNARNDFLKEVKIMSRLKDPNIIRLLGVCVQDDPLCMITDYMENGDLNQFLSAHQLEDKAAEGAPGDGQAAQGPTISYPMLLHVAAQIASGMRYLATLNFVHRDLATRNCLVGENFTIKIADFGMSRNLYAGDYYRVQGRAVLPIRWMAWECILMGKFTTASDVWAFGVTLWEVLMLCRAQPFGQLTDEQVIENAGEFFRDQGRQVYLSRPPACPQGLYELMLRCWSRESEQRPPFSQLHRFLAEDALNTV

[5] = biological target: Tyrosine-protein kinase Fes/Fps (Homo sapiens) (UniProt P07332); assay: Inhibition of N-terminal GST-fused full length human FES (1 to 413, 416 to 822 residues) expressed in baculovirus-infected Sf21 cells using Srctide as substrate at 1 uM in presence of ATP by Mobility shift assay
[6] = biological target: Vascular endothelial growth factor receptor 3 (Homo sapiens) (UniProt P35916); assay: Inhibition of N-terminal GST-fused human FLT4 cytoplasmic domain (798 to 1298 residues) expressed in baculovirus-infected Sf21 cells using CSKtide as substrate at 1 uM in presence of ATP by Mobility shift assay
Vascular endothelial growth factor receptor 3 (Homo sapiens), sequence (P35916 whole entry, the tested form may be a part): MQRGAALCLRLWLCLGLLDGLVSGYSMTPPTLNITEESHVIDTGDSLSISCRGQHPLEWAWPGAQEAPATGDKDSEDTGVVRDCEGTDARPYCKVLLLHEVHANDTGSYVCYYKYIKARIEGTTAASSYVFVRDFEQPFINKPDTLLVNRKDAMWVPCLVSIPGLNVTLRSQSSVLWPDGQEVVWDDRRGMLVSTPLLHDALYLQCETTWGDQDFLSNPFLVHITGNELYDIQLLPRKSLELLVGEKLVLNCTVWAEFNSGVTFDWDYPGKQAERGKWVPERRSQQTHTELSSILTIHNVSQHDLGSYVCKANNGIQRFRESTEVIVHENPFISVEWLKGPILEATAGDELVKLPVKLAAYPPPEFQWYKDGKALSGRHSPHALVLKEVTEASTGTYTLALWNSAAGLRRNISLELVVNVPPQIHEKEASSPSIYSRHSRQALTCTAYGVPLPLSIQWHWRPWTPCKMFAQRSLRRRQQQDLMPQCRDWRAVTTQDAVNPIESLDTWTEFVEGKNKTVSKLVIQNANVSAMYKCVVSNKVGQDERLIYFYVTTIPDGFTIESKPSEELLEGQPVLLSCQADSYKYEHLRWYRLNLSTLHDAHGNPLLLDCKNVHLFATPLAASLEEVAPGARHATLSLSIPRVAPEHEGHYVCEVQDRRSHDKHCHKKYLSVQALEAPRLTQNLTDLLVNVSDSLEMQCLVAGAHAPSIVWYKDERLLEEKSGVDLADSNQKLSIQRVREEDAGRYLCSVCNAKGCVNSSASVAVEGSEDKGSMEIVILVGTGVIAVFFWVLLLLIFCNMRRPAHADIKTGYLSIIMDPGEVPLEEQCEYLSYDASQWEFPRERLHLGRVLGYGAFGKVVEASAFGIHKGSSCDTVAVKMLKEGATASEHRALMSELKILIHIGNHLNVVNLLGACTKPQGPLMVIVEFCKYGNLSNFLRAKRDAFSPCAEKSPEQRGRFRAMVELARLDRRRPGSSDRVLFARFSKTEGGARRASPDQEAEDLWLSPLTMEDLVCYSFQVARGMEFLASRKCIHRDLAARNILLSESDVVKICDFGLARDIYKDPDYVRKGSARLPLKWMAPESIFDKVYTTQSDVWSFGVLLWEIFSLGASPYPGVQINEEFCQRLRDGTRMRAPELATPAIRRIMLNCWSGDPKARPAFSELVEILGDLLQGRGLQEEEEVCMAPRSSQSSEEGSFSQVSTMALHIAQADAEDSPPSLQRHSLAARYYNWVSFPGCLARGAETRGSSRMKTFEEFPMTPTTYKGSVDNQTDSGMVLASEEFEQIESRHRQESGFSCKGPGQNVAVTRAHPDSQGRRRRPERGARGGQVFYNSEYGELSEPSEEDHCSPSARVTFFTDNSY

[7] = biological target: Macrophage colony-stimulating factor 1 receptor (Homo sapiens) (UniProt P07333); assay: Inhibition of N-terminal GST-fused human FMS cytoplasmic domain (538 to 972 residues) expressed in baculovirus-infected Sf21 cells using Srctide as substrate at 1 uM in presence of ATP by Mobility shift assay
[8] = biological target: Insulin-like growth factor 1 receptor (Homo sapiens) (UniProt P08069); assay: Inhibition of N-terminal GST-fused human IGF1R cytoplasmic domain (959 to 1367 residues) expressed in baculovirus-infected Sf21 cells using IRS1 as substrate at 1 uM in presence of ATP by Mobility shift assay
[9] = biological target: Platelet-derived growth factor receptor beta (Homo sapiens) (UniProt P09619); assay: Inhibition of N-terminal GST-tagged human PDGFR-beta cytoplasmic domain (557 to 1106 residues) expressed in baculovirus-infected Sf21 cells using CSKtide as substrate at 1 uM in presence of ATP by Mobility shift assay
[10] = biological target: High affinity nerve growth factor receptor (Homo sapiens) (UniProt P04629); assay: Inhibition of N-terminal GST-tagged human TRKA cytoplasmic domain (436 to 790 residues) expressed in baculovirus-infected Sf21 cells using CSKtide as substrate at 1 uM in presence of ATP by Mobility shift assay
High affinity nerve growth factor receptor (Homo sapiens), sequence (P04629 33-796 limits assumed): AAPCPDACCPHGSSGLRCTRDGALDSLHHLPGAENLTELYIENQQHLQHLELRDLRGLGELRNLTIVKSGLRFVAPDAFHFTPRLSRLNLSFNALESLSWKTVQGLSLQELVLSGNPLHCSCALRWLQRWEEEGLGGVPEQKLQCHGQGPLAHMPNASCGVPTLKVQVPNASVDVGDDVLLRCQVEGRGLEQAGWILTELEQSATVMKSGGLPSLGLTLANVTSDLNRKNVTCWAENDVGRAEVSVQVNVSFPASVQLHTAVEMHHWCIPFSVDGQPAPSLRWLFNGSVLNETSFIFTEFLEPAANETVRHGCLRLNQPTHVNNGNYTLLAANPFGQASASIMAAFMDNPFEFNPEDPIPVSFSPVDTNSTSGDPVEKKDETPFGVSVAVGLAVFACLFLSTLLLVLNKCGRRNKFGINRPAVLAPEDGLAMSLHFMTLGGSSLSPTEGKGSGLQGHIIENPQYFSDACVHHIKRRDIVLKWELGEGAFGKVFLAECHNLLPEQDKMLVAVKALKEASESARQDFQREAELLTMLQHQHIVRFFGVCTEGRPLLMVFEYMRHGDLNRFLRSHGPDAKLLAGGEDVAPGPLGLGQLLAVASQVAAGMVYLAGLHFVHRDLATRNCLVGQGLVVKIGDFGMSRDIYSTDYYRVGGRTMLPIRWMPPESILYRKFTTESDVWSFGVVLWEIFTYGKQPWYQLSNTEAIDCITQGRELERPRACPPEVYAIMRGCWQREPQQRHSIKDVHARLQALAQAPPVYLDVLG

[11] = biological target: Tyrosine-protein kinase ZAP-70 (Homo sapiens) (UniProt P43403); assay: Inhibition of N-terminal GST-tagged full length human ZAP70 (1 to 619 residues) expressed in baculovirus-infected Sf21 cells using Blk/Lyntide as substrate at 1 uM in presence of ATP by Mobility shift assay
[12] = biological target: Serine/threonine-protein kinase Chk2 (Homo sapiens) (UniProt O96017); assay: Inhibition of N-terminal GST-fused full length human CHK2 (1 to 543 residues) expressed in baculovirus expression system using CHKtide as substrate at 1 uM in presence of ATP by Mobility shift assay
[13] = biological target: Casein kinase I isoform delta (Homo sapiens) (UniProt P48730); assay: Inhibition of N-terminal GST-fused human CK1delta catalytic domain (1 to 294 residues) expressed in Escherichia coli expression system using CKtide as substrate at 1 uM in presence of ATP by Mobility shift assay
[14] = biological target: Dual specificity tyrosine-phosphorylation-regulated kinase 2 (Homo sapiens) (UniProt Q92630); assay: Inhibition of N-terminal GST-fused full length human DYRK2 (1 to 528 residues) expressed in baculovirus expression system using DYRKtide-F as substrate at 1 uM in presence of ATP by Mobility shift assay
[15] = biological target: Interleukin-1 receptor-associated kinase 4 (Homo sapiens) (UniProt Q9NWZ3); assay: Inhibition of N-terminal GST-fused full length human IRAK4 (1 to 460 residues) expressed in baculovirus expression system using IRAK1 peptide as substrate at 1 uM in presence of ATP by Mobility shift assay
[16] = biological target: Mitogen-activated protein kinase 9 (Homo sapiens) (UniProt P45984); assay: Inhibition of N-terminal GST-fused human JNK2 catalytic domain (1 to 364 residues) expressed in Escherichia coli expression system using Modified ERKtide as substrate at 1 uM in presence of ATP by Mobility shift assay
[17] = biological target: MAP/microtubule affinity-regulating kinase 3 (Homo sapiens) (UniProt P27448); assay: Inhibition of N-terminal GST-fused full length human MARK3 (1 to 729 residues) expressed in baculovirus expression system using CHKtide as substrate at 1 uM in presence of ATP by Mobility shift assay
[18] = biological target: cAMP-dependent protein kinase catalytic subunit PRKX (Homo sapiens) (UniProt P51817); assay: Inhibition of N-terminal GST-fused full length human PRKX (1 to 358 residues) expressed in baculovirus expression system using Kemptide as substrate at 1 uM in presence of ATP by Mobility shift assay
[19] = biological target: Myosin light chain kinase 2, skeletal/cardiac muscle (Homo sapiens) (UniProt Q9H1R3); assay: Inhibition of N-terminal GST-fused full length human skMLCK (1 to 596 residues) expressed in baculovirus expression system using MLCtide as substrate at 1 uM in presence of ATP by Mobility shift assay
Myosin light chain kinase 2, skeletal/cardiac muscle (Homo sapiens), sequence (Q9H1R3 whole entry, the tested form may be a part): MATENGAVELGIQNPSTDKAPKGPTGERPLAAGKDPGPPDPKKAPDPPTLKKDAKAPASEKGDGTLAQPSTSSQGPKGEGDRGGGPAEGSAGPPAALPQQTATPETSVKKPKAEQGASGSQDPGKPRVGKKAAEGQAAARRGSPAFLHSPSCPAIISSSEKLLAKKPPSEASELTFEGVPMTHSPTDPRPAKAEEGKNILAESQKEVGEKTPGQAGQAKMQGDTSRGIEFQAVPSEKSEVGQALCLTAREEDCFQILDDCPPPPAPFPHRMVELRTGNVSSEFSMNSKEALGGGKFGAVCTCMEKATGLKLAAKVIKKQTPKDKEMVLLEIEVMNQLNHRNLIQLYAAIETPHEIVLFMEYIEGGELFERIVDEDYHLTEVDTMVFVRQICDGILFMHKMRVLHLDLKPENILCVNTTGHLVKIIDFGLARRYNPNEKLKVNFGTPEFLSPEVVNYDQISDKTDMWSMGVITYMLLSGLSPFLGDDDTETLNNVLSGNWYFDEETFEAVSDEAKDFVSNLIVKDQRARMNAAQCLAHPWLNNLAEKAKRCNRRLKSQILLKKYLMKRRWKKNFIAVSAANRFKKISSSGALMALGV

[20] = biological target: SRSF protein kinase 2 (Homo sapiens) (UniProt P78362); assay: Inhibition of N-terminal GST-fused full length human SRPK2 (1 to 688 residues) expressed in baculovirus expression system using DYRKtide-F as substrate at 1 uM in presence of ATP by Mobility shift assay
[21] = biological target: Serine/threonine-protein kinase TAO2 (Homo sapiens) (UniProt Q9UL54); assay: Inhibition of N-terminal GST-fused human TAOK2 catalytic domain (1 to 319 residues) expressed in baculovirus expression system using TAOKtide as substrate at 1 uM in presence of ATP by Mobility shift assay
[22] = biological target: Serine/threonine-protein kinase WNK2 (Homo sapiens) (UniProt Q9Y3S1); assay: Inhibition of N-terminal GST-fused human WNK2 catalytic domain (166 to 489 residues) expressed in baculovirus expression system using SPAKtide as substrate at 1 uM in presence of ATP by Mobility shift assay

Tyrosine-protein kinase ABL1 (Homo sapiens), sequence (P00519 whole entry, the tested form may be a part): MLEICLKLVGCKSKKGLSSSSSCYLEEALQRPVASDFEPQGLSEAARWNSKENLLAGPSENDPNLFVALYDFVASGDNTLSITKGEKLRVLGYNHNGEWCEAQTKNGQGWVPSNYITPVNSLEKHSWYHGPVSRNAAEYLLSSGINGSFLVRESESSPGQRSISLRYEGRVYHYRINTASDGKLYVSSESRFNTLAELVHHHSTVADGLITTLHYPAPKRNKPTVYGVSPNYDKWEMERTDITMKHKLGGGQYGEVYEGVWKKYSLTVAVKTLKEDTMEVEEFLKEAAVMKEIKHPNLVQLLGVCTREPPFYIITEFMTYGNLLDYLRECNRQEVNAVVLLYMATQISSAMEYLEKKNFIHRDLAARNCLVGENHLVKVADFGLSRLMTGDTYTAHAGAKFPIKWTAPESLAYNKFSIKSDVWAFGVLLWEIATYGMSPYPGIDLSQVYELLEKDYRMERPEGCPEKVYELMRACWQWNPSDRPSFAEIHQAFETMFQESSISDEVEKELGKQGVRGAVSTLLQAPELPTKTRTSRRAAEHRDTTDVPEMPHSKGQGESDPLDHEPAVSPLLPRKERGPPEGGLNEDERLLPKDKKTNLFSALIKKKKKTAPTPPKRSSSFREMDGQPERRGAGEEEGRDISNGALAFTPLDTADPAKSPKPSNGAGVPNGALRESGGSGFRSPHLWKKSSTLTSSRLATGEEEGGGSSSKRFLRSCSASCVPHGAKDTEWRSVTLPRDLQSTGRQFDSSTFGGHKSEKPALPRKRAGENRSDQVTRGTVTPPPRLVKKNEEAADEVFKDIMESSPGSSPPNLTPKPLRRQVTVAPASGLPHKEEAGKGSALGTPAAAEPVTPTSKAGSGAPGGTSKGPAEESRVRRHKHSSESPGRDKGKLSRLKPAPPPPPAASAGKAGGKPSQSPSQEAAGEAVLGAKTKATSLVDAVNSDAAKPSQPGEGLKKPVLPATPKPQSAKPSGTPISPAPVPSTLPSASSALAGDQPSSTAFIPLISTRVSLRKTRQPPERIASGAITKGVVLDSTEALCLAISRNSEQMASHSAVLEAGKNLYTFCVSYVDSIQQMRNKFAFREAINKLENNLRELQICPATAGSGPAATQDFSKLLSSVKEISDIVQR

Compound | inhibition [1] | inhibition [2] | inhibition [3] | inhibition [4] | inhibition [5] | inhibition [6] | inhibition [7] | inhibition [8] | inhibition [9] | inhibition [10] | inhibition [11] | inhibition [12] | inhibition [13] | inhibition [14] | inhibition [15] | inhibition [16] | inhibition [17] | inhibition [18] | inhibition [19] | inhibition [20] | other results
Cc1cc(C)c(CNC(=O)c2cc(Br)c3c(c2C)O[C@@](C)([C@H]2CC[C@H](N(C)C)CC2)O3)c(=O)[nH]1 | -5.7% | -10% | -0.5% | -3.3% | -0.6% | -1.5% | -0.4% | -2.9% | -1.3% | -5.1% | -6.2% | 0.7% | -3% | -2.3% | -5.6% | -4% | 0.7% | -0.6% | 2.4% | -1.6% | inhibition [21]: -2.8%; inhibition [22]: -2.1%
Cc1cc(C)c(CNC(=O)c2cc(Cl)c3c(c2C)O[C@@](C)([C@H]2CC[C@H](N(C)C)CC2)O3)c(=O)[nH]1 [VALEMETOSTAT] | -8% | -9% | -5.9% | -3.7% | -2.7% | -1.9% | 1.3% | -4.5% | -4.5% | -5.7% | -5.4% | -2.2% | -3.8% | 6% | -4.1% | -5% | 5.7% | -1.9% | -1.6% | 0% | inhibition [21]: -0.5%; inhibition [22]: -3.7%
